Source: patent publication US6828327B2, “Macroheterocylic compounds useful as kinase inhibitors” (Ortho-McNeil Pharmaceutical, Inc., priority 2000, dated 2004)

What was measured:
[1] = target: T1, Insulin-R kinase (Homo sapiens, UniProt P06213); assay: Biotinylated Peptide Substrate Assay, Insulin-R kinase; assay type: biochemical
T1 construct: consists of residues 941-1313 of the cytoplasmic domain of the beta-subunit of the human insulin receptor; purchased BIOMOL, Plymouth Meeting, Pa; SE-195
Method: Assays to test inhibition of a compound for other kinases were preformed using methods that measure the amount of phosphorylation of a biotinylated peptide substrate. Biotinylated peptide substrates were selected from the literature as appropriate for the enzyme being evaluated.
A kinase reaction mix was prepared in 50 mM Tris-HCl pH=8, 10 mM MgCl2, 0.1 mM Na3VO4, 1 mM DTT, 10 μM ATP, 0.25-1 μM biotinylated peptide substrate, 0.2-0.8 μCuries per well ^33P-γ-ATP (2000-3000 Ci/mmol). Assay conditions vary slightly for each protein kinase, for example, insulin receptor kinase requires 10 mM MnCl2 for activity and Calmodulin-dependent protein kinase requires calmodulin and 10 mM CaCl2. The reaction mixture was dispensed into the wells of a streptavidin coated Flashplate and 1 μL drug stock in 100% DMSO was added to a 100 μL reaction volume resulting in a final concentration of 1% DMSO in the reaction. Enzyme was diluted in 50 mM Tris-HCl pH=8.0, 0.1% BSA and added to each well. The reaction was incubated for one hour at 30° C. in the presence of compound. After one hour the reaction mix was aspirated from the plate and the plate was washed with PBS containing 100 mM EDTA. The plate was read on a scintillation counter to determine ^33P-γ-ATP incorporated into the immobilized peptide. Test compounds were assayed in duplicate at 8 concentrations (100 uM, 10 uM, 1 uM, 100 nM, 10 nM, 1 nM, 100 pM, 10 pM). A maximum and minimum signal for the assay was determined on each plate.
The IC50 was calculated from the dose response curve of the percent inhibition of the maximum signal in the assay according to the formula:
% Inhibition=((MS−BS)/(TCS−BS))×100%
where MS=Maximum Signal, BS=Background Signal, TCS=Test Compound Signal. The percent inhibition was graphed against the log concentration of the test compound. Known inhibitor compounds as appropriate references for the kinase being assayed were also included on each plate.
VEGF-R (vascular endothelial growth factor receptor-2) is a fusion protein containing a polyhistidine tag at the N-terminus followed by amino acids 786-1343 of the rat VEGF-R2 kinase domain (GenBank Accession #U93306). Protein Kinase A is the catalytic subunit of cAMP dependent protein kinase-A purified from bovine heart (Upstate Biotech, Lake Placid, N.Y., Cat#14-114). CDK1 (cyclin dependent kinase 1) is isolated from insect cells expressing both the human CDK1 catalytic subunit and its positive regulatory subunit cyclin B (New England Biolabs, Beverly, Mass., Cat. #6020). Casein Kinase-1 is a protein truncation at amino acid 318 of the C-terminal portion of the rat CK1 delta isoform produced in E.coli (New England Biolabs, Beverly, Mass., Cat. #6030). […]

[2] = target: T2, PKC-γ (Homo sapiens, UniProt P05129); assay: Protein Kinase C Scintillation Proximity Assay (SPA), PKC-γ; assay type: biochemical; settings: inhibition value, recombinant human isozyme, 1 μM ATP
T2 construct: purchased PanVera, Madison Wis; host or cells: baculovirus expression vector
Method: (§1) The binding activity of a compound for Protein Kinase C (PKC) was assessed using a homogeneous Scintillation Proximity Assay according to the procedure below.
(§2) The different human PKC isozymes (were obtained from PanVera, Madison Wis. and had been prepared as recombinant enzymes produced from a baculovirus expression vector) were added to a reaction mixture containing a test compound, 20 mM HEPES (pH 7.4), 100 μM CaCl2, 10 mM MgCl2, 100 μg/mL phosphatidylserine, 20 μg/mL diacylglycerol, 1 μM ATP, 0.8 μCi (^33P)ATP, and 5 μg/mL biotinylated substrate peptide (Jing Zhao et al., J. Bio. Chem., 1998, 273, 23072). The reaction was incubated for 15 min at 30° C. Reactions were terminated by the addition of streptavidin-coated SPA beads (Amersham) in a solution containing 1 mM EGTA, 10 mM EDTA and 100 μM ATP. Beads were allowed to settle overnight and the plates read in a Wallac MICROBETA scintillation counter (PerkinElmer Life sciences, Wellesley, Mass.).
(§3) Values for inhibition of various PKC isozymes and GSK 3-β by certain compounds of the invention tested in the PKC SPA and GSK 3-β assays are shown in Table 1.

[3] = target: T3, GSK 3-β (Oryctolagus cuniculus, UniProt G1T8E2); assay: Glycogen Synthase Kinase 3-β Assay; assay type: biochemical, rabbit; settings: inhibition value, recombinant rabbit GSK 3-β, PPI-2 substrate
T3 construct: purchased New England Biolabs, Beverly Mass
Method: The inhibitory activity of a compound against Glycogen Synthase Kinase 3-β (GSK 3-β) activity was assessed using a recombinant rabbit GSK 3-β according to the procedure below.
The mixture was reacted for 90 minutes at 30° C. to allow phosphorylation of the PPI-2 protein and then the protein in the reaction was precipitated using 10% trichloroacetic acid (TCA). The precipitated protein was collected on filter plates (MultiScreen-DV, Millipore, Bedford Mass.), which were subsequently washed. Finally, the radioactivity was quantified using a TopCount Scintillation Counter (Packard, Meridian Conn.). […] Staurosporine or Valproate (both available from several commercial sources), known inhibitors of GSK-3-β, were used as a positive control for screening.

[4] = target: T4, PKC-βII (Homo sapiens, UniProt P05771); assay: Protein Kinase C Scintillation Proximity Assay (SPA), PKC-βII; assay type: biochemical; settings: inhibition value, recombinant human isozyme, 1 μM ATP
T4 construct: purchased PanVera, Madison Wis; host or cells: baculovirus expression vector
Method: as §1, §2, §3

T4 sequence (P05771 1-673 isoform P05771-2): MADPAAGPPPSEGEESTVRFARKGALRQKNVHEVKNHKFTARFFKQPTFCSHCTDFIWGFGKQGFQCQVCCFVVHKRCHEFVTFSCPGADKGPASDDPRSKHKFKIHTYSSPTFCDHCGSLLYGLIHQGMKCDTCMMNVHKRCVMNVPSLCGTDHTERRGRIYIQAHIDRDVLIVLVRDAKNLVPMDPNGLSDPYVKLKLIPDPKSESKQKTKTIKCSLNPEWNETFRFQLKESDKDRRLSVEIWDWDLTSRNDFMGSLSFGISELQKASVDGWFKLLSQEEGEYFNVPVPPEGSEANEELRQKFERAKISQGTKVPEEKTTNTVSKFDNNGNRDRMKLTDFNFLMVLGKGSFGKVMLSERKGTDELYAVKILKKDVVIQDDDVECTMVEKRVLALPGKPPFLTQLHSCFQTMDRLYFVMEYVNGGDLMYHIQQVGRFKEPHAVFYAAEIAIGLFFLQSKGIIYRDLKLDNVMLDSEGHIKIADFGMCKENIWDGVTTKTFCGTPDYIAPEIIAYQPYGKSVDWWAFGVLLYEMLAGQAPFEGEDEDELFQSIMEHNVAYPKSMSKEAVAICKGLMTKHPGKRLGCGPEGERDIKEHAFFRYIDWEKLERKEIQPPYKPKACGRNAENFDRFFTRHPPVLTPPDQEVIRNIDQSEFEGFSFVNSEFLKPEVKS
T1 sequence (P06213 980-1352): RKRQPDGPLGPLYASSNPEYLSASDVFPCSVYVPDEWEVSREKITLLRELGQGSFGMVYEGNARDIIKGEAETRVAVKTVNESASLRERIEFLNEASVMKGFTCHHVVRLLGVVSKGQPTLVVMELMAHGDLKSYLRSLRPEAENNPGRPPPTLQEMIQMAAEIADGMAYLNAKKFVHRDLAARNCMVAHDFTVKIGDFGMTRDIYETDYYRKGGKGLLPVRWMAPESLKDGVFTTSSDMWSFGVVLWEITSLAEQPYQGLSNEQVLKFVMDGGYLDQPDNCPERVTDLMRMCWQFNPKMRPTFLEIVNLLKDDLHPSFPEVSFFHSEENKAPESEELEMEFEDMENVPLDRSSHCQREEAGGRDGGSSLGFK
T3 sequence (G1T8E2 1-432): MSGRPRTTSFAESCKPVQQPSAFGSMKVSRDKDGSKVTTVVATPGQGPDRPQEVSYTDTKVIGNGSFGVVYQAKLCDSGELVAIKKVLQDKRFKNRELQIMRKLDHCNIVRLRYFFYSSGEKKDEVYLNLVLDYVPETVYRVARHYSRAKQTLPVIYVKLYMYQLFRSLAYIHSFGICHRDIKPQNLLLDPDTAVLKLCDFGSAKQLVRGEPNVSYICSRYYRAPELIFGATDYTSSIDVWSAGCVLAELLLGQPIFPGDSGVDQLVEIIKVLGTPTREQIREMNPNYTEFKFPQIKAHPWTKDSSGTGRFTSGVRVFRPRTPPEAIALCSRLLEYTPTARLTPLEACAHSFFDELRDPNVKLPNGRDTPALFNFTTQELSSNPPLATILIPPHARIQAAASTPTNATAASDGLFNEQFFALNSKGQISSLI

`O=C1NC(=O)C2=C1c1cn(c3ncccc13)CCOCCOCCOCCn1cc2c2cccnc21` [Cpd 1] was tested, and the IC50 [1] was over 10 µM, the IC50 [2] was 38700 nM and the IC50 [3] was 27 nM. For the same compound, the IC50 [4] was 2410 nM.

`O=C1NC(=O)C2=C1c1cn(c3ccccc13)CCOCCOCCOCCn1cc2c2cccnc21` [Cpd 11] gave an IC50 [1] of over 10 µM, an IC50 [2] of 2850 nM and an IC50 [3] of 15 nM. For the same compound, the IC50 [4] was 72 nM.

`O=C1NC(=O)C2=C1c1cn(c3ncccc13)CCOCCOCCOCCOCCn1cc2c2cccnc21` [Cpd 2] showed an IC50 [1] of over 10 µM, an IC50 [2] of over 100000 nM and an IC50 [3] of 32 nM. For the same compound, the IC50 [4] was over 100000 nM.

In the case of `O=C1NC(=O)C2=C1c1cn(c3ccccc13)CCOCCOCCn1cc2c2cccnc21` [Cpd 10], the IC50 [1] is reported as over 10 µM, the IC50 [2] is reported as 7800 nM and the IC50 [3] is reported as 128 nM. It also gave an IC50 [4] of 519 nM.
